From article PMC7041945, “Misfolded proteins bind and activate death receptor 5 to trigger apoptosis during unresolved endoplasmic reticulum stress” (eLife, 2020)

Legend:
HCT116 cells = test: Annexin V (and SytoxBlue) flow cytometry for apoptosis; format: cell-based, Homo sapiens
Procedure, shortened: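 HCT116 cells transfected with the specified plasmid for 24 hr, trypsinized and allowed 30 min recovery at 37°C. Stained with Annexin V-AlexaFluor 647 (1:20) for 15 min at RT in the dark; apoptotic cell distribution determined by flow cytometry.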

[1] = test system: caspase 8 in HCT116 lysates; test: Caspase 8 activity (caspase glo 8) of cell lysates / IP inputs; format: cell-based, Homo sapiens; details: for norm RLUs: rep 2, normalized by lysate quant
Experimental: Cells harvested from a 6-well plate were resuspended in 100 μl of lysis buffer (30 mM HEPES pH 7.2, 150 mM NaCl, 1% Triton X-100) and lysed via needle shearing (25G, 10 passes) followed by a 30 min incubation on ice. Supernatant was collected after centrifuging at 1000xg for 5 min. For the caspase activity assay, 10 μl of supernatant diluted with lysis buffer (1:25, 1:50, 1:100 to stay within linear range of luminescence measurements) was incubated with 10 μl of the luminogenic caspase glo 8 substrate (Promega #PRG8200) in a 384-white walled plate (Corning 3574) for 45 min at RT before measuring luminescence on a Spectramax-M5 plate reader.

DR5 = test: GFP immunoprecipitation: DR5 (FADD, caspase 8) recovered with GFP-tagged protein, Western blot; format: cell-based, Homo sapiens; details: for fraction of DR5 IP'ed: GFP IP
Experimental: 15 cm dishes were seeded with 4 million HCT116 cells and allowed to recover for 18 hr prior to transfection. Samples were then transfected for 24 hr with the GFP-tagged ER trafficked protein, cytosolic GFP, or empty vector. To harvest apoptotic and living cells for each sample, all media and washes were collected. Cells were scraped in 2 ml of cold PBS and combined with the media and washes. Samples were centrifuged to pellet cells, washed with 1 ml cold PBS, and flash frozen in liquid N2 prior to lysis.
The cell pellets were resuspended in 750 μl of 30 mM HEPES pH 7.2, 150 mM NaCl, 1% Triton X-100 with 1x Roche protease inhibitor cocktail (if used subsequently for caspase glo 8 assay) or with 5x Roche protease inhibitor cocktail (if used for immunoblotting). The cells were lysed by mechanical shearing through a 25G needle for 13–15 plunges followed by incubation on ice for 30 min. The lysate was centrifuged at 2000xg for 5 min to remove debris and then incubated with 30 μl of GFP-Trap magnetic agarose beads (Chromotek gtma-20) for 4 hr at 4°C. The beads were then washed with 750 μl of lysis buffer for 10 min at 4°C for three rounds.
For Western blots, samples were eluted by adding 35 μl of non-reducing SDS gel loading buffer (50 mM Tris-HCl (pH 6.8), 2% SDS, 0.1% bromophenol blue, 10% glycerol) and incubated for 10 min at 70°C. The beads were then magnetically removed from the eluted sample before adding DTT to a final concentration of 25 mM. The entire sample was loaded onto the gel and immunoblotted for DR5, caspase 8, and GFP, in that order.

GAPDH = test: qPCR of GAPDH (reference transcript); format: cell-based; details: Rep 2; for avg. fold induction GAPDH / fold induction GAPDH: relative to empty traffo

Q: “INS-GFP: GFP-tagged proinsulin expressed from plasmid” was tested. Which “PARP cleavage and annexin V staining” value (HCT116 cells; HCT116, transfected 24 hr, Nt or DR5 siRNA) did it give?
A: induced PARP cleavage and annexin V staining in a DR5-dependent manner

Q: What about the “Mean ± SEM (siDR5), Annexin V” value (HCT116 cells; siDR5, N=3) of the same substance?
A: 19 ± 1.7 N=3

Q: And the “95% confidence interval of difference, Annexin V” value (HCT116 cells; siDR5 vs. siNt)?
A: -25 to -8.3

Q: What about the “Difference between means, Annexin V” value (HCT116 cells; siDR5 vs. siNt) of the same substance?
A: -17 ± 2.9

Q: And the “Mean ± SEM (siNt), Annexin V” value (HCT116 cells; siNt, N=3)?
A: 35 ± 2.4 N=3

Q: And the “fold change in caspase 8 activity relative to GFP” value ([1]; input lysates GFP vs INS vs RHO, Rep1)?
A: 2.597 fold

Q: And the “fold change in caspase 8 activity relative to GFP” value ([1]; input lysates GFP vs INS vs RHO, Rep2)?
A: 2.0013 fold

Q: And the “avg fold change in caspase 8 activity relative to GFP” value ([1]; input lysates GFP vs INS vs RHO, average of Rep1 and Rep2)?
A: 2.299 fold

Q: And the “Mean ± SEM (lysate inputs)” value ([1]; lysate inputs, relative to GFP, n=2)?
A: 2.299 ± 0.2977, n=2

Q: What about the “norm RLUs” value ([1]; dilution 0.025) of the same substance?
A: 1827.1 RLUs

Q: And the “norm RLUs” value ([1]; dilution 0.05)?
A: 3654.19 RLUs

Q: What about the “norm RLUs” value ([1]; dilution 0.1) of the same substance?
A: 8264.86 RLUs

Q: What about the “95% confidence interval of difference (lysate inputs)” value ([1]; vs. GFP) of the same substance?
A: 0.01818 to 2.580

Q: What about the “Difference between means (lysate inputs)” value ([1]; vs. GFP) of the same substance?
A: 1.299 ± 0.2977

Q: What about the “fraction of DR5 IP'ed” value (DR5; sheet 2018-04-13 rep 2) of the same substance?
A: 0.03271

Q: What about the “fraction of DR5 IP'ed” value (DR5; sheet 2018-09-20 rep 1) of the same substance?
A: 0.01265

Q: What about the “fraction IP'ed” value (DR5; Rep 1 (second series)) of the same substance?
A: 0.03271

Q: What about the “fraction IP'ed” value (DR5; Rep 2 (second series)) of the same substance?
A: 0.01265

Q: And the “% IP'ed” value (DR5; average of all replicates)?
A: 2.268%

Q: And the “fraction IP'ed, average” value (DR5; average of all replicates)?
A: 0.02268

Q: What about the “Mean ± SEM (fraction IP'ed)” value (DR5; unpaired t test sheet, GFP n=5, MPZ n=3, INS n=2, RHO n=2) of the same substance?
A: 0.02268 ± 0.01003, n=2

Q: And the “95% confidence interval (difference between means)” value (DR5; vs. GFP, fraction IP'ed)?
A: -0.02195 to 0.04688

Q: And the Difference between means (DR5; vs. GFP, fraction IP'ed, ± SEM)?
A: 0.01247 ± 0.01339

Q: What about the “Cq GAPDH” value (GAPDH; 3 hr, mean of 3 replicates) of the same substance?
A: 19.1619

Q: And the “avg. fold induction GAPDH” value (GAPDH; 3 hr, mean of 3 replicates)?
A: 1

Q: And the “fold induction GAPDH” value (GAPDH; 3 hr, replicate 1)?
A: 0.8888

Q: And the “fold induction GAPDH” value (GAPDH; 3 hr, replicate 2)?
A: 1.06

Q: What about the “fold induction GAPDH” value (GAPDH; 3 hr, replicate 3) of the same substance?
A: 1.051

Q: And the “2^-(deltaCq) GAPDH” value (GAPDH; 3 hr, replicate 1)?
A: 0.8916

Q: What about the “Cq GAPDH” value (GAPDH; 3 hr, replicate 1) of the same substance?
A: 19.3274

Q: What about the “Cq(sample) - avg Cq(GAPDH), GAPDH” value (GAPDH; 3 hr, replicate 1) of the same substance?
A: 0.1655

Q: And the “2^-(deltaCq) GAPDH” value (GAPDH; 3 hr, replicate 2)?
A: 1.064

Q: And the “Cq GAPDH” value (GAPDH; 3 hr, replicate 2)?
A: 19.0729

Q: What about the “Cq(sample) - avg Cq(GAPDH), GAPDH” value (GAPDH; 3 hr, replicate 2) of the same substance?
A: -0.08892

Q: What about the “2^-(deltaCq) GAPDH” value (GAPDH; 3 hr, replicate 3) of the same substance?
A: 1.055

Q: What about the “Cq GAPDH” value (GAPDH; 3 hr, replicate 3) of the same substance?
A: 19.0852

Q: And the “Cq(sample) - avg Cq(GAPDH), GAPDH” value (GAPDH; 3 hr, replicate 3)?
A: -0.07662

Q: What about the “Cq GAPDH” value (GAPDH; 7 hr, mean of 3 replicates) of the same substance?
A: 19.3003

Q: And the “avg. fold induction GAPDH” value (GAPDH; 7 hr, mean of 3 replicates)?
A: 1.004

Q: And the “fold induction GAPDH” value (GAPDH; 7 hr, replicate 1)?
A: 0.8393

Q: What about the “fold induction GAPDH” value (GAPDH; 7 hr, replicate 2) of the same substance?
A: 1.091

Q: What about the “fold induction GAPDH” value (GAPDH; 7 hr, replicate 3) of the same substance?
A: 1.082

Q: And the “2^-(deltaCq) GAPDH” value (GAPDH; 7 hr, replicate 1)?
A: 0.842

Q: What about the “Cq GAPDH” value (GAPDH; 7 hr, replicate 1) of the same substance?
A: 19.5485

Q: And the “Cq(sample) - avg Cq(GAPDH), GAPDH” value (GAPDH; 7 hr, replicate 1)?
A: 0.2482

Q: And the “2^-(deltaCq) GAPDH” value (GAPDH; 7 hr, replicate 2)?
A: 1.094

Q: And the “Cq GAPDH” value (GAPDH; 7 hr, replicate 2)?
A: 19.1708

Q: What about the “Cq(sample) - avg Cq(GAPDH), GAPDH” value (GAPDH; 7 hr, replicate 2) of the same substance?
A: -0.1295

Q: And the “2^-(deltaCq) GAPDH” value (GAPDH; 7 hr, replicate 3)?
A: 1.086

Q: And the “Cq GAPDH” value (GAPDH; 7 hr, replicate 3)?
A: 19.1817

Q: What about the “Cq(sample) - avg Cq(GAPDH), GAPDH” value (GAPDH; 7 hr, replicate 3) of the same substance?
A: -0.1186

Q: And the “Cq GAPDH” value (GAPDH; 24 hr, mean of 3 replicates)?
A: 19.7046

Q: What about the “avg. fold induction GAPDH” value (GAPDH; 24 hr, mean of 3 replicates) of the same substance?
A: 1.006

Q: And the “fold induction GAPDH” value (GAPDH; 24 hr, replicate 1)?
A: 0.8281

Q: And the “fold induction GAPDH” value (GAPDH; 24 hr, replicate 2)?
A: 1.042

Q: What about the “fold induction GAPDH” value (GAPDH; 24 hr, replicate 3) of the same substance?
A: 1.149

Q: What about the “2^-(deltaCq) GAPDH” value (GAPDH; 24 hr, replicate 1) of the same substance?
A: 0.8307

Q: What about the “Cq GAPDH” value (GAPDH; 24 hr, replicate 1) of the same substance?
A: 19.9722

Q: And the “Cq(sample) - avg Cq(GAPDH), GAPDH” value (GAPDH; 24 hr, replicate 1)?
A: 0.2676

Q: What about the “2^-(deltaCq) GAPDH” value (GAPDH; 24 hr, replicate 2) of the same substance?
A: 1.045

Q: What about the “Cq GAPDH” value (GAPDH; 24 hr, replicate 2) of the same substance?
A: 19.6413

Q: What about the “Cq(sample) - avg Cq(GAPDH), GAPDH” value (GAPDH; 24 hr, replicate 2) of the same substance?
A: -0.06334

Q: And the “2^-(deltaCq) GAPDH” value (GAPDH; 24 hr, replicate 3)?
A: 1.1521

Q: What about the “Cq GAPDH” value (GAPDH; 24 hr, replicate 3) of the same substance?
A: 19.5004

Q: And the “Cq(sample) - avg Cq(GAPDH), GAPDH” value (GAPDH; 24 hr, replicate 3)?
A: -0.2043
